Read-outs that look alike come from different tables or passages of the source. Where a SMILES comes first, the peptide text is derived from it. Bridges are numbered along the chain shown (N, C = ends). [ ]: non-standard residue; d: D form.
Columns and labels:
[1] = biological target: human somatostatin receptors subtype 2 (Homo sapiens, UniProt P30874); details: cited from earlier work
MCF-7 cells [2] = assay: Cell death of MCF-7 cells after 1 day treatment; format: cell-based; details: 10^−5 M
CHO cells [3] = assay: Cell death of CHO cells after 1 day treatment; format: cell-based; details: 10^−5 M
[4] = biological target: human somatostatin receptors subtype 4 (Homo sapiens, UniProt P31391); details: cited from earlier work
human somatostatin receptors subtype 4, sequence (P31391 whole entry): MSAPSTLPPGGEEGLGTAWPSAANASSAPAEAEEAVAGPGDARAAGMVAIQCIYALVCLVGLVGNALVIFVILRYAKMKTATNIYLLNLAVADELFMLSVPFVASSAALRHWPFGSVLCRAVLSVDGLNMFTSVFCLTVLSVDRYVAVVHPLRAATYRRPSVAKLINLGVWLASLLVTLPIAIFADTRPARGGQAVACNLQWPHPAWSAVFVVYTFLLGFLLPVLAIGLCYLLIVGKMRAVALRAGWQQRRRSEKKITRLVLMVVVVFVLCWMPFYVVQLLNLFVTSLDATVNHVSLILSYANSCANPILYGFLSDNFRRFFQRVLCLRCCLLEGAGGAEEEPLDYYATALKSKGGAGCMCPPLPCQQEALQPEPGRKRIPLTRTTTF

MCF-7 cells [5] = assay: Internalization of labeled octreotide by MCF-7 cells (somatostatin receptor-mediated endocytosis); format: cell-based; details: one hour incubation, 100 μg/ml, 37° C.
CHO cells [6] = details: 30 min, 4° C.; for binding (fluorescence labeling) to CHO cells: 100 μg in 1 ml buffer; for binding to CHO cells at higher concentration of labeled octreotide: higher concentration (500 μg/ml)
Experimental: FIG. 2 depicts fluorescence micrographs of MCF-7 and CHO cells after incubation with fluorescin-octreotide at 4° C. for 30 min. […] Cell morphology was shown at A, C, E, and G. Bar=20 μm;
The MCF-7 cells and CHO cells are inclubated with 100 μg of fluorescein labeled octerotide in 1 ml of a buffer for 30 minutes at 4 ° C., after which the cells are washed with PBS, fixed with 4% paraformaldehye and subject to fluorescence microscopy.

MCF-7 cells [7] = assay: Fluorescence microscopy binding of fluorescein-labeled octreotide to MCF-7 cells; details: 30 min, 4° C.; for binding (fluorescence labeling) to MCF-7 cells: 100 μg in 1 ml buffer
Experimental: Panels B, D, F and H which correspond to panels A, C, E and G, respectively, show the fluorescence labeled octreotide binding to the MCF-7 cells and the CHO. The MCF-7 cells and CHO cells are inclubated with 100 μg of fluorescein labeled octerotide in 1 ml of a buffer for 30 minutes at 4 ° C., after which the cells are washed with PBS, fixed with 4% paraformaldehye and subject to fluorescence microscopy.

MCF-7 cells [8] = details: paclitaxel at 10^−6 M, 1 day
[9] = listed as fluorescin-octreotide

human somatostatin receptors subtype 2, sequence (P30874 whole entry): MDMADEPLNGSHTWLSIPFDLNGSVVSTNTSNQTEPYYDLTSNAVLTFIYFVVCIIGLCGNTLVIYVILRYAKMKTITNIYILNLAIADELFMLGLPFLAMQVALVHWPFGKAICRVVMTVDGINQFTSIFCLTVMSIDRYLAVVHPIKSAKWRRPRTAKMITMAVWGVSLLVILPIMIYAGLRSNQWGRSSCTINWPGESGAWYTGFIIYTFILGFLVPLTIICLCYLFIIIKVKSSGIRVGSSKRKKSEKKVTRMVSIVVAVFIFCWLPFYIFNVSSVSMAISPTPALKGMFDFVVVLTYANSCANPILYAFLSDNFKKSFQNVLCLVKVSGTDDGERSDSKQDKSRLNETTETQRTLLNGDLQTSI

C[C@@H](O)[C@@H]1NC(=O)[C@H](CCCCN)NC(=O)[C@@H](Cc2c[nH]c3ccccc23)NC(=O)[C@H](Cc2ccccc2)NC(=O)[C@@H](NC(=O)[C@H](N)Cc2ccccc2)CSSC[C@@H](C(=O)N[C@H](CO)[C@@H](C)O)NC1=O [octreotide, D-Phe-c[Cys-Phe-D-Trp-Lys-Thr-Cys]-Thr(ol)]
affinity to human somatostatin receptor subtype 2 [1]: high affinities

CC(=O)O[C@H]1C(=O)[C@@]2(C)[C@H]([C@H](OC(=O)c3ccccc3)[C@]3(O)C[C@H](OC(=O)[C@H](O)[C@@H](NC(=O)c4ccccc4)c4ccccc4)C(C)=C1C3(C)C)[C@]1(OC(C)=O)CO[C@@H]1C[C@@H]2O [paclitaxel, reference compound]
death of MCF-7 cells (MCF-7 cells [2]): causes death of both MCF-7 cells and CHO cells | death of CHO cells (CHO cells [3]): causes death of both MCF-7 cells and CHO cells

CC(C)[C@@H]1NC(=O)[C@H](CCCCN)NC(=O)[C@@H](Cc2c[nH]c3ccccc23)NC(=O)[C@H](Cc2ccc(O)cc2)NC(=O)[C@@H](NC(=O)[C@H](N)Cc2ccccc2)CSSC[C@@H](C(=O)N[C@@H](Cc2c[nH]c3ccccc23)C(N)=O)NC1=O [vapreotide, D-Phe-c[Cys-Tyr-D-Trp-Lys-Val-Cys]-Trp-NH2] (H-[dF]CY[dW]KVCW-NH2; disulfide 2-7)
affinity to human somatostatin receptor subtype 4 [4]: high affinities

Fluorescein-Octreotide [labeled octreotide]
internalization into MCF-7 cytosol (MCF-7 cells [5]): internalized into the MCF-7 cytosol | internalization into MCF-7 cytosol (MCF-7 cells [5]; [9]): internalization | binding (fluorescence labeling) to CHO cells (CHO cells [6]): not to the CHO cells | binding (fluorescence labeling) to CHO cells (CHO cells [6]; [9]): No labeling can be seen among the CHO cells | binding to CHO cells at higher concentration of labeled octreotide (CHO cells [6]): does not bind to the CHO cells | binding to CHO cells at higher concentration of labeled octreotide (CHO cells [6]; [9]): No labeling | binding (fluorescence labeling) to MCF-7 cells (MCF-7 cells [7]): binds to the MCF-7 cells | binding (fluorescence labeling) to MCF-7 cells (MCF-7 cells [7]; [9]): labeling is confined to the MCF-7 cell surface | binding to MCF-7 cells in the presence of excessive non-labeled octreotide (MCF-7 cells [7]; excessive amount (1,000 fold) of nonfluorescent octreotide): disappears

Paclitaxel-Glutary 1-Octreotide [octreotide conjugated paclitaxel]
cell specificity (MCF-7 versus CHO cells) (MCF-7 cells [2]): specific to MCF-7 cells | death of MCF-7 cells (MCF-7 cells [2]): induces only the death of the MCF-7 cells | anti-tumor activity through disrupting microtubule formation, compared with non-conjugated paclitaxel (MCF-7 cells [8]): same anti- tumor activity through disrupting microtubule formation | anti-tumor activity through disrupting microtubule formation, compared with non-conjugated paclitaxel (MCF-7 cells [8]; listed as octreotide-conjugated taxol): virtually retains the cellular functions of taxol | death of CHO cells (CHO cells [3]): not of the CHO cells

Reference: US6552007B2, “Use of somatostatin analogs for the delivery of anti-tumor drugs to tumor cells” (priority 2000, dated 2003)
